Measured values reported in patent US7503965B2, “Azo compound, ink composition, and colored object” (Nippon Kayaku Kabushiki Kaisha, priority 2004, dated 2009).

Assay: solubility in water (ammonia alkali) by filter paper spot
Assay type: physicochemical
Conditions: aqueous buffer

Structure (SMILES)	solubility [mg/mL]
Nc1c(N=Nc2ccc3c(O)c(N=Nc4cc(S(=O)(=O)O)c(N=Nc5c(C(=O)O)nn(-c6ccc(S(=O)(=O)O)cc6)c5O)cc4S(=O)(=O)O)c(S(=O)(=O)O)cc3c2S(=O)(=O)O)cc(S(=O)(=O)O)c2cc(S(=O)(=O)O)c(N=Nc3ccc([N+](=O)[O-])cc3S(=O)(=O)O)c(O)c12 [compound 9]	≥ 100
Nc1c(N=Nc2ccc3c(O)c(N=Nc4ccc(N=Nc5c(C(=O)O)nn(-c6cc(S(=O)(=O)O)ccc6S(=O)(=O)O)c5O)c(S(=O)(=O)O)c4)c(S(=O)(=O)O)cc3c2S(=O)(=O)O)cc(S(=O)(=O)O)c2cc(S(=O)(=O)O)c(N=Nc3ccc([N+](=O)[O-])cc3S(=O)(=O)O)c(O)c12 [compound 21]	≥ 100
Nc1c(N=Nc2ccc3c(O)c(N=Nc4cc(C(=O)O)c(N=Nc5c(C(=O)O)nn(-c6ccc(S(=O)(=O)O)cc6)c5O)c(S(=O)(=O)O)c4)c(S(=O)(=O)O)cc3c2S(=O)(=O)O)cc(S(=O)(=O)O)c2cc(S(=O)(=O)O)c(N=Nc3ccc([N+](=O)[O-])cc3S(=O)(=O)O)c(O)c12 [compound 26]	≥ 100
Nc1c(N=Nc2ccc3c(O)c(N=Nc4ccc(N=Nc5c(C(=O)O)nn(-c6cc(C(=O)O)cc(C(=O)O)c6)c5O)c(S(=O)(=O)O)c4)c(S(=O)(=O)O)cc3c2S(=O)(=O)O)cc(S(=O)(=O)O)c2cc(S(=O)(=O)O)c(N=Nc3ccc([N+](=O)[O-])cc3S(=O)(=O)O)c(O)c12 [compound 27]	≥ 100

Now from value to compound:

solubility [mg/mL]	Structure (SMILES)
≥ 100	Nc1c(N=Nc2ccc3c(O)c(N=Nc4ccc(N=Nc5c(C(=O)O)nn(-c6ccc(S(=O)(=O)O)cc6)c5O)c(S(=O)(=O)O)c4)c(S(=O)(=O)O)cc3c2S(=O)(=O)O)cc(S(=O)(=O)O)c2cc(S(=O)(=O)O)c(N=Nc3ccc([N+](=O)[O-])cc3S(=O)(=O)O)c(O)c12 [compound 1]
≥ 100	Nc1c(N=Nc2ccc3c(O)c(N=Nc4ccc(S(=O)(=O)O)c(/N=N/c5c(C(=O)O)nn(-c6ccc(S(=O)(=O)O)cc6)c5O)c4)c(S(=O)(=O)O)cc3c2S(=O)(=O)O)cc(S(=O)(=O)O)c2cc(S(=O)(=O)O)c(N=Nc3ccc([N+](=O)[O-])cc3S(=O)(=O)O)c(O)c12 [compound 13]
≥ 100	Nc1c(N=Nc2ccc3c(O)c(N=Nc4ccc(N=Nc5c(C(=O)O)nn(-c6ccc(S(=O)(=O)O)cc6)c5O)c(S(=O)(=O)O)c4)c(S(=O)(=O)O)cc3c2S(=O)(=O)O)cc(S(=O)(=O)O)c2cc(S(=O)(=O)O)c(N=Nc3ccc(S(=O)(=O)O)cc3[N+](=O)[O-])c(O)c12 [compound 22]
≥ 100	Nc1c(N=Nc2ccc3c(O)c(N=Nc4cc(S(=O)(=O)O)c(N=Nc5c(C(=O)O)nn(-c6ccc(S(=O)(=O)O)cc6)c5O)cc4S(=O)(=O)O)c(S(=O)(=O)O)cc3c2S(=O)(=O)O)cc(S(=O)(=O)O)c2cc(S(=O)(=O)O)c(N=Nc3ccc(S(=O)(=O)O)cc3[N+](=O)[O-])c(O)c12 [compound 23]
≥ 100	COc1cc([N+](=O)[O-])c(S(=O)(=O)O)cc1N=Nc1c(S(=O)(=O)O)cc2c(S(=O)(=O)O)cc(N=Nc3ccc4c(O)c(N=Nc5ccc(N=Nc6c(C(=O)O)nn(-c7ccc(S(=O)(=O)O)cc7)c6O)c(S(=O)(=O)O)c5)c(S(=O)(=O)O)cc4c3S(=O)(=O)O)c(N)c2c1O [compound 24]
≥ 100	Nc1c(N=Nc2ccc3c(O)c(N=Nc4cc(Cl)c(N=Nc5c(C(=O)O)nn(-c6ccc(S(=O)(=O)O)cc6)c5O)c(S(=O)(=O)O)c4)c(S(=O)(=O)O)cc3c2S(=O)(=O)O)cc(S(=O)(=O)O)c2cc(S(=O)(=O)O)c(N=Nc3ccc([N+](=O)[O-])cc3S(=O)(=O)O)c(O)c12 [compound 25]
